Test [1] has as its target T1, Serine/threonine-protein kinase Sgk2 (Homo sapiens) (UniProt Q9HBY8).
T1 sequence (whole entry): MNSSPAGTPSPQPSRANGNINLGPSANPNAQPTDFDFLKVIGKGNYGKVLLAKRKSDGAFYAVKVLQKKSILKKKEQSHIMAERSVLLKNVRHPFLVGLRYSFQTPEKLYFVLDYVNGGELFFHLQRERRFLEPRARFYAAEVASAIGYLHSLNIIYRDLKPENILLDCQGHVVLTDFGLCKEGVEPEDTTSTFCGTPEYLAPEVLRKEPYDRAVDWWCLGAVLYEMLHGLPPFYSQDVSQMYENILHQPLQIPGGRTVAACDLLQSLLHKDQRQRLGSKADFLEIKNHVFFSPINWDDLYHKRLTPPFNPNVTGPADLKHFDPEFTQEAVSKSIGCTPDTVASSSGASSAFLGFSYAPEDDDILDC
Briefly: Inhibition of human full length SGK2 expressed in baculovirus assessed as substrate phosphorylation using fluorescence-labelled peptides as substrate at 8 uM after 90 mins by microfluidic peptide phosphorylation assay.

Test [2] concerns the target Ribosomal protein S6 kinase alpha-1 (Homo sapiens) (UniProt Q15418). Briefly: Inhibition of human full length RSK1 expressed in baculovirus assessed as substrate phosphorylation using fluorescence-labelled peptides as substrate at 0.1 uM after 90 mins by microfluidic peptide phosphorylation assay.
For test [3], the target named is T2, Mitogen-activated protein kinase 12 (Homo sapiens) (UniProt P53778).
T2 sequence (whole entry): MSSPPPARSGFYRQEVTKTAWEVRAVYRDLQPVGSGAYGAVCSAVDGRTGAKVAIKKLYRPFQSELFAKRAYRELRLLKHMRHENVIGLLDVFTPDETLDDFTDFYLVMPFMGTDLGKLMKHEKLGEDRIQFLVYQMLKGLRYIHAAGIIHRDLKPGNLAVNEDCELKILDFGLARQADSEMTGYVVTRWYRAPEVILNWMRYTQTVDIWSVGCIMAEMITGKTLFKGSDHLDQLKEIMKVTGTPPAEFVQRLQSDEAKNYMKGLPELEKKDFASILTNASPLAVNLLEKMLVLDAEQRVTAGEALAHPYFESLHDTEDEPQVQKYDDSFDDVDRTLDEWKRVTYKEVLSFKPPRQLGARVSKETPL
The test is described as follows: Inhibition of human full length p38 gamma expressed in Escherichia coli cell assessed as substrate phosphorylation using fluorescence-labelled peptides as substrate at 0.06 uM after 90 mins by microfluidic peptide phosphorylation assay.

For test [4], the target named is Tyrosine-protein kinase ABL2 (Homo sapiens) (UniProt P42684). The test is described as follows: Inhibition of human truncated Arg expressed in baculovirus assessed as substrate phosphorylation using fluorescence-labelled peptides as substrate at 9 uM after 90 mins by microfluidic peptide phosphorylation assay.
Test [5] deals with T3, Serine/threonine-protein kinase BRSK2 (Homo sapiens) (UniProt Q8IWQ3).
T3 sequence (whole entry): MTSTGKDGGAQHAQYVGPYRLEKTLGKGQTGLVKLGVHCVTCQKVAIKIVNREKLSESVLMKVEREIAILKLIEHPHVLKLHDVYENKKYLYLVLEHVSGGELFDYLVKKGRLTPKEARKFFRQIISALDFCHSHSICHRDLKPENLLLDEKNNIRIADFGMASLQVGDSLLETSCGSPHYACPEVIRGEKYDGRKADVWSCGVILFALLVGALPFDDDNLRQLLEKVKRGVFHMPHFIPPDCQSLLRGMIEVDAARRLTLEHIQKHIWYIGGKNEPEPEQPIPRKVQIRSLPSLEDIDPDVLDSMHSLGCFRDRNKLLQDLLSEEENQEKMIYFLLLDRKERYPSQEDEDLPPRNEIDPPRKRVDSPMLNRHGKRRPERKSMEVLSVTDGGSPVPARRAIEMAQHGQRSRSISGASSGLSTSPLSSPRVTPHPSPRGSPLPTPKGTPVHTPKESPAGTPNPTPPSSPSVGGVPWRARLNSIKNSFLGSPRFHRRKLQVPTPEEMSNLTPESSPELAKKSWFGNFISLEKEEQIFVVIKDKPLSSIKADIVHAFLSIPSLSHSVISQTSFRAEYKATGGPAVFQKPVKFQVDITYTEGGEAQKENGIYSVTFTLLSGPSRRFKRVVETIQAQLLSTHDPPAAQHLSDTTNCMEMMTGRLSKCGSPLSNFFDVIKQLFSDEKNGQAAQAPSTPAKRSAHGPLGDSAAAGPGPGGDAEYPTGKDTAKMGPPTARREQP
Briefly: Inhibition of human truncated BRSK2 expressed in baculovirus assessed as substrate phosphorylation using fluorescence-labelled peptides as substrate at 70 uM after 90 mins by microfluidic peptide phosphorylation assay.

Test [6] addresses Insulin receptor (Homo sapiens) (UniProt P06213). Briefly: Inhibition of human INSR catalytic domain expressed in baculovirus assessed as substrate phosphorylation using fluorescence-labelled peptides as substrate at 70 uM after 90 mins by microfluidic peptide phosphorylation assay.
In test [7] the target is Fibroblast growth factor receptor 4 (Homo sapiens) (UniProt P22455). Briefly: Inhibition of human FGFR4 catalytic domain expressed in baculovirus assessed as substrate phosphorylation using fluorescence-labelled peptides as substrate at 70 uM after 90 mins by microfluidic peptide phosphorylation assay.
Test [8] deals with MAP kinase-activated protein kinase 2 (Homo sapiens) (UniProt P49137). The test is described as follows: Inhibition of human full length MAPKAPK2 expressed in baculovirus assessed as substrate phosphorylation using fluorescence-labelled peptides as substrate at 70 uM after 90 mins by microfluidic peptide phosphorylation assay.
For test [9], the target named is T4, Serine/threonine-protein kinase 3 (Homo sapiens) (UniProt Q13188).
T4 sequence (whole entry): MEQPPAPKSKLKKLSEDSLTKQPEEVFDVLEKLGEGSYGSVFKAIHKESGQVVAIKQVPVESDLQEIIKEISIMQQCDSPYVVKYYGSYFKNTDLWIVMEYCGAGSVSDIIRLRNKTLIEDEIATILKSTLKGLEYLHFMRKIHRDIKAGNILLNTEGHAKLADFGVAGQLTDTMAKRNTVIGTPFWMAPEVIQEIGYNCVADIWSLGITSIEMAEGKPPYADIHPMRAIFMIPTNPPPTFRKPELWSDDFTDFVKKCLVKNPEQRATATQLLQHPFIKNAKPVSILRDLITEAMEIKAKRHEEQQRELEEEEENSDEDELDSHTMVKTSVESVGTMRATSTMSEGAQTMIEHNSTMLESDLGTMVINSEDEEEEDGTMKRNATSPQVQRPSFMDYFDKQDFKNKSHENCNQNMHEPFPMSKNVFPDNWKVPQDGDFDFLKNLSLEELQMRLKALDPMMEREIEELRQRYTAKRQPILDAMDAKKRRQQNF
Briefly: Inhibition of human full length MST2 expressed in baculovirus assessed as substrate phosphorylation using fluorescence-labelled peptides as substrate at 2 uM after 90 mins by microfluidic peptide phosphorylation assay.

The species entered for another test is Homo sapiens. The test is described as follows: Inhibition of human full length PKA expressed in baculovirus assessed as substrate phosphorylation using fluorescence-labelled peptides as substrate at 95 uM after 90 mins by microfluidic peptide phosphorylation assay.
For test [10], the target named is MAP kinase p38 (Homo sapiens) (UniProt O15264+Q15759+Q16539+P53778). The test is described as follows: Inhibition of human full length p38 beta2 expressed in Escherichia coli cell assessed as substrate phosphorylation using fluorescence-labelled peptides as substrate at […] after 90 mins by microfluidic peptide phosphorylation assay.

Sequence of Tyrosine-protein kinase ABL2 (Homo sapiens) (P42684 whole entry, the tested form may be a part): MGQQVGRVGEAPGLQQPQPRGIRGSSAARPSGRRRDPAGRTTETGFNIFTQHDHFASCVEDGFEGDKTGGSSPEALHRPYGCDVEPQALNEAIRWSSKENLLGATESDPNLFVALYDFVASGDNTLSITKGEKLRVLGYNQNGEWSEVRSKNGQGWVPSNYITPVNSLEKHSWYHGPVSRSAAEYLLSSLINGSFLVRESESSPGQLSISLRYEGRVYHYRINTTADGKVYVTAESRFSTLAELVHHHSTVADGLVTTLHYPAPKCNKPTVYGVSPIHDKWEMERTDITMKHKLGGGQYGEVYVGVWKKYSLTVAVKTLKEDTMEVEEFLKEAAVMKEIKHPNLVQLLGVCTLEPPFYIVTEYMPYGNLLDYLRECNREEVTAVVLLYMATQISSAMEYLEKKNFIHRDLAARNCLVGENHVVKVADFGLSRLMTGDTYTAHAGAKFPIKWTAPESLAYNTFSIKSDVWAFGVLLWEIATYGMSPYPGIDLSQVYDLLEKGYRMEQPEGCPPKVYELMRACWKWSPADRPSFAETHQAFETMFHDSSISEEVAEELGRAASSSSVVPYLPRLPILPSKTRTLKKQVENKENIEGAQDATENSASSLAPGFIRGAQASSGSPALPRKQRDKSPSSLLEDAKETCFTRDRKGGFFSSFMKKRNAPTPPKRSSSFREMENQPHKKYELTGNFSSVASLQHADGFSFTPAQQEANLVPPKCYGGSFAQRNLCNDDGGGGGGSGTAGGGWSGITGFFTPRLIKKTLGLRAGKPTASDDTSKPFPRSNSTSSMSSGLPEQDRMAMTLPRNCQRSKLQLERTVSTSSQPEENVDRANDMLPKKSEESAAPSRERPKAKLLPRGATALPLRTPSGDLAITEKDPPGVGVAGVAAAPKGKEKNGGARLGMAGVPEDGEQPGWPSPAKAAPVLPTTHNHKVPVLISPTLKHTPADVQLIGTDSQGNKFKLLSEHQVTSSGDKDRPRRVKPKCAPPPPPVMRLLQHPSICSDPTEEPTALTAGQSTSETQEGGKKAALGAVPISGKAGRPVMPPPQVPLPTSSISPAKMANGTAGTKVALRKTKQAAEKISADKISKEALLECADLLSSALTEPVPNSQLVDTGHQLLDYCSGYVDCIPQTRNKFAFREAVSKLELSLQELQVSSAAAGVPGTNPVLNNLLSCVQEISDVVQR
Sequence of Fibroblast growth factor receptor 4 (Homo sapiens) (P22455 22-802 limits assumed): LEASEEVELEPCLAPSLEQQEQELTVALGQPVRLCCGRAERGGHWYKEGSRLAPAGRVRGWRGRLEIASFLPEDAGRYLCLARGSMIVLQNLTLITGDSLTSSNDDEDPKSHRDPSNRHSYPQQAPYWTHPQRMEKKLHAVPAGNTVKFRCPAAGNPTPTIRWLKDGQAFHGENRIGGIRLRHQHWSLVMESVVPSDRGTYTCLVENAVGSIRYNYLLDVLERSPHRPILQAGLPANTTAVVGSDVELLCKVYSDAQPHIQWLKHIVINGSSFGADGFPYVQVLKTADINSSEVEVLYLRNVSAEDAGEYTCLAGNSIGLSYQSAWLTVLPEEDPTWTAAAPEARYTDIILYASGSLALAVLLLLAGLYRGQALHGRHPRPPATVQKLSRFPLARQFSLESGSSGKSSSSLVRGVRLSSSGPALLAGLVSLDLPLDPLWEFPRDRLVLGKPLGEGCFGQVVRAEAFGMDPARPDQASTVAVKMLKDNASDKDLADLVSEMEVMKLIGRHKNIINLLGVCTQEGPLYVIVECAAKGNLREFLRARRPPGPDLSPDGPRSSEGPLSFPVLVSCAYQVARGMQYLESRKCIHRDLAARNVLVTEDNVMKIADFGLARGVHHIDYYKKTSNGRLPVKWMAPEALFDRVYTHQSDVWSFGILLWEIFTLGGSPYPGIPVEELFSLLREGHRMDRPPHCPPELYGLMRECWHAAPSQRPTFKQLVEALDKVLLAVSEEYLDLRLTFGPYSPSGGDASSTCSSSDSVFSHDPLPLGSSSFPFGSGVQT
Sequence of Ribosomal protein S6 kinase alpha-1 (Homo sapiens) (Q15418 whole entry): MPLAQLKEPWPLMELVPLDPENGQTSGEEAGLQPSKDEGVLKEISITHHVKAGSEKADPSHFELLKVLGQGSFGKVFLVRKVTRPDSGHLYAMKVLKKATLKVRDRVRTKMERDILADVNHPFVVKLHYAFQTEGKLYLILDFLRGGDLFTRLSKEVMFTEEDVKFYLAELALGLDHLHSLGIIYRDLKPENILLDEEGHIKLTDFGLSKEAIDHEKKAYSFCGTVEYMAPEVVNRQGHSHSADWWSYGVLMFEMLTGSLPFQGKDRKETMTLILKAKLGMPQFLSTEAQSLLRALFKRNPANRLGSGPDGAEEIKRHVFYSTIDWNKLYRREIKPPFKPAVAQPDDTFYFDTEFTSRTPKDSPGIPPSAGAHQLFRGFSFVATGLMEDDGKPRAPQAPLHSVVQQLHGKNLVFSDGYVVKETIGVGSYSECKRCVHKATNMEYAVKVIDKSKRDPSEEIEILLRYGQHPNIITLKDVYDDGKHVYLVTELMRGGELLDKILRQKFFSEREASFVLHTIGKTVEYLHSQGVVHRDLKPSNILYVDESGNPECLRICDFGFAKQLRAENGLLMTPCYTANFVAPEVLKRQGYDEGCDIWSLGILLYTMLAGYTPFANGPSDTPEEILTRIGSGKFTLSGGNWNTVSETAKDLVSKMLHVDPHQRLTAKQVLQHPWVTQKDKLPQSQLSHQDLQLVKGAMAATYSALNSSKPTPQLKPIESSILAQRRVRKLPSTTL
Sequence of MAP kinase-activated protein kinase 2 (Homo sapiens) (P49137 whole entry, looked up): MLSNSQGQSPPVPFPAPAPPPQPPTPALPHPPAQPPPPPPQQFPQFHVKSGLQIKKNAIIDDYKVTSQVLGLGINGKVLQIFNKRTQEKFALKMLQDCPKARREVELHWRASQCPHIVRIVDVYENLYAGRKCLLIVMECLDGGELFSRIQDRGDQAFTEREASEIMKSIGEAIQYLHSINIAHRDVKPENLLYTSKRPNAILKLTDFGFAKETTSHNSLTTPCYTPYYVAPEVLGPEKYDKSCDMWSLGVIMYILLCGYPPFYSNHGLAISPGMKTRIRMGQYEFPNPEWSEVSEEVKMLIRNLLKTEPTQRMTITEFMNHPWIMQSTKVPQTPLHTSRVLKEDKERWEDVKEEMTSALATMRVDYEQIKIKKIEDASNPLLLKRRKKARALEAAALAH

As for `NCC1CCN(c2ncnc3[nH]ccc23)CC1`, the inhibition in [1] was 69%.
As for `C[C@H](CN(C)C)Oc1nc(Nc2cc3cccc(Cl)c3cn2)cnc1C#N`, the inhibition in test [2] is 48.5%.
With `NC1(Cc2ccc(Cl)cc2)CCN(c2ncnc3[nH]ccc23)CC1`, the inhibition in [3] turned out to be 0%.
Turning to `NCC1CN(c2ncnc3[nH]c4cnccc4c23)CCO1` (stereo unspecified), in [4], the inhibition is 6.5%.
In the case of `CNCc1ccc(-c2ncnc3[nH]cnc23)cc1`, the inhibition in test [5] came to 43%; in [6], 0%; in [7], 11.5%; in [8] it was 77%.
For the compound `NC1CCN(c2ncnc3[nH]ccc23)CC1`, the inhibition in test [9] worked out at 17.5%.
As for `NCCc1ccc(-c2ncnc3[nH]cnc23)cc1`, in the test filed under Homo sapiens, the inhibition worked out at 97.5%.
`COC(=O)c1cnc(Nc2cnc(C#N)cn2)cc1NCC1CCNCC1`: in test [10], the inhibition came to 1%.

Broadly, the inhibition is how much of the control response was suppressed.

The values above are taken from ChEMBL document CHEMBL3132769, “Fragment growing to retain or alter the selectivity of anchored kinase hinge-binding fragments” (Medchemcomm, 2014).
